# pIC50: −log10 of the molar value.
# Columns and labels:
# Type in all cases: biochemical
# [1] = target: PAK4 (Homo sapiens, UniProt O96013); test: In vitro PAK inhibition assay (SelectScreen, Ser/Thr 20 peptide)
# Description: (§1) Compounds are screened in 1% DMSO (final) in the well. For 10 point titrations, 3-fold serial dilutions are conducted.
# (§2) All Peptide/Kinase Mixtures are diluted to a 2× working concentration in the appropriate Kinase Buffer
# The 2×PAK4/Ser/Thr 20 mixture is prepared in 50 mM HEPES pH 7.5, 0.01% BRIJ-35, 10 mM MgCl2, 1 mM EGTA. The final 10 μL Kinase Reaction consists of 0.1-0.75 ng PAK4 and 2 μM Ser/Thr 20 in 50 mM HEPES pH 7.5, 0.01% BRIJ-35, 10 mM MgCl2, 1 mM EGTA. After the 1 hour Kinase Reaction incubation, 5 μL of a 1:256 dilution of Development Reagent A is added.
# (§3) This control yields 100% cleaved peptide in the Development Reaction.
# (§4) The 100% Phosphorylation Control, which consists of a synthetically phosphorylated peptide of the same sequence as the peptide substrate, is designed to allow for the calculation of percent phosphorylation.
# The minimum Emission Ratio in a screen is established by the 0% Inhibition Control, which contains active kinase. This control is designed to produce a 10-50%* phosphorylated peptide in the Kinase Reaction.
# (§5) A known inhibitor control standard curve, 10 point titration, is run for each individual kinase on the same plate as the kinase to ensure the kinase is inhibited within an expected IC50 range previously determined.
# (§6) Bar-coded Corning, low volume NBS, black 384-well plate (Corning Cat. #3676) • 1. Add the following solutions to a well in a 384-well plate: • 2.5 μL of 4× Test Compound OR (100 nL 100× Test Compound plus 2.4 μL kinase buffer) • 5 μL of 2× Peptide/Kinase (PAK) Mixture • 2.5 μL of 4×ATP Solution • 2. Shake the plate for 30-seconds • 3. Incubate the PAK Kinase Reaction at room temperature for 60-minutes • 4. Add 5 μL of Development Reagent Solution to each well • 5. Shake the plate for 30-seconds • 6. Incubate the Development Reaction for 60-minutes • 7. Determine the fluorescence using a fluorescence plate reader • 8. Analyze the fluorescence data
# SelectScreen® Kinase Profiling Service uses XLfit from IDBS. The dose response curve is curve fit to model number 205 (sigmoidal dose-response model).
# The table below provides specifications and data around each kinase. The representative IC50 value with a known inhibitor for each kinase was determined at the ATP bin nearest to the ATP Km app.
# [2] = target: PAK2 (PAK65) (Homo sapiens, UniProt Q13177); test: as above
# Description: as §1, §2
# The 2×PAK2 (PAK65)/Ser/Thr 20 mixture is prepared in 50 mM HEPES pH 7.5, 0.01% BRIJ-35, 10 mM MgCl2, 1 mM EGTA. The final 10 μL Kinase Reaction consists of 0.29-6 ng PAK2 (PAK65) and 2 μM Ser/Thr 20 in 50 mM HEPES pH 7.5, 0.01% BRIJ-35, 10 mM MgCl2, 1 mM EGTA.
# as §3, §4
# (§7) This control is designed to produce a 10-50%* phosphorylated peptide in the Kinase Reaction.
# as §5
# as §6, with “Add” for “Bar-coded Corning, low volume NBS, black 384-well plate (Corning Cat. #3676) • 1. Add”
# (§8) SelectScreen® Kinase Profiling Service uses XLfit from IDBS.
# (§9) The representative IC50 value with a known inhibitor for each kinase was determined at the ATP bin nearest to the ATP Km app.
# [3] = target: PAK1 (Homo sapiens, UniProt Q13153); test: In vitro PAK inhibition assay (SelectScreen, Ser/Thr 19 peptide)
# Description: as §1, §2
# The 2×PAK1/Ser/Thr 19 mixture is prepared in 50 mM HEPES pH 7.5, 0.01% BRIJ-35, 10 mM MgCl2, 1 mM EGTA.
# as §3, §4, §7, §5
# as §6, with “Add” for “Bar-coded Corning, low volume NBS, black 384-well plate (Corning Cat. #3676) • 1. Add”
# as §8, §9
# [4] = target: PAK3 (Homo sapiens, UniProt O75914); test: In vitro PAK inhibition assay (SelectScreen, Ser/Thr 20 peptide)
# Description: as §1, §2
# The 2×PAK3/Ser/Thr 20 mixture is prepared in 50 mM HEPES pH 7.5, 0.01% BRIJ-35, 10 mM MgCl2, 1 mM EGTA.
# as §3, §4, §7, §5
# as §6, with “Add” for “Bar-coded Corning, low volume NBS, black 384-well plate (Corning Cat. #3676) • 1. Add”
# as §8, §9
# Chain of PAK4 (O96013 whole entry): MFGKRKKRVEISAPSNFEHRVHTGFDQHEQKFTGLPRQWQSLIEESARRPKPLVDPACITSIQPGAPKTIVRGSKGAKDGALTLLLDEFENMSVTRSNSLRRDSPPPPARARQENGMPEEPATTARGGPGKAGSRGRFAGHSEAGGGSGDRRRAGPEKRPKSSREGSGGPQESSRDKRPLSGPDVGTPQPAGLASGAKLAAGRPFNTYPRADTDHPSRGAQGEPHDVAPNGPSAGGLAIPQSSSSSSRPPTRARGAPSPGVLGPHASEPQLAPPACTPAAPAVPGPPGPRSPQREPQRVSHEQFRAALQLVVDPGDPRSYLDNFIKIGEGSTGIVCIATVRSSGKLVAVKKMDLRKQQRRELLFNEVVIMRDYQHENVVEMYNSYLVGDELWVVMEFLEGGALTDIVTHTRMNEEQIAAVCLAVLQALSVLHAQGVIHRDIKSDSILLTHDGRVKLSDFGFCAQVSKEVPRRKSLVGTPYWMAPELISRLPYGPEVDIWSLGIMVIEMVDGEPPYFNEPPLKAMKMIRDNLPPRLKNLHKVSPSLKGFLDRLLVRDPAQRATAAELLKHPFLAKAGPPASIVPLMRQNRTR
# Chain of PAK3 (O75914 whole entry): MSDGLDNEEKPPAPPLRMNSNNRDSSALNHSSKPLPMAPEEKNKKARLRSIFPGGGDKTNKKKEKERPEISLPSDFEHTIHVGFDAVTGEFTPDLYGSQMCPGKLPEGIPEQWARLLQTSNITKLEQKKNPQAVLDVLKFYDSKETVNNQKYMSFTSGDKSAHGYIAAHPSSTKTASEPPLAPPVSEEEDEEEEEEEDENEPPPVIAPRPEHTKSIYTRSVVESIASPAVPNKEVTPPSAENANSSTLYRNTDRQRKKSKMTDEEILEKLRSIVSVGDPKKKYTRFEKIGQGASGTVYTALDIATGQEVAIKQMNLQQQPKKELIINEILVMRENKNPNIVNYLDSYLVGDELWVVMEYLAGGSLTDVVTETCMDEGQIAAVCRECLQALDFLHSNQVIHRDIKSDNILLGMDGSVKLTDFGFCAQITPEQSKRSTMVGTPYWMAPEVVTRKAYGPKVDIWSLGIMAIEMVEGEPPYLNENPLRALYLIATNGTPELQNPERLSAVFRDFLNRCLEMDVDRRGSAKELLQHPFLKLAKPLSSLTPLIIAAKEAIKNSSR
# Chain of PAK2 (PAK65) (Q13177 whole entry): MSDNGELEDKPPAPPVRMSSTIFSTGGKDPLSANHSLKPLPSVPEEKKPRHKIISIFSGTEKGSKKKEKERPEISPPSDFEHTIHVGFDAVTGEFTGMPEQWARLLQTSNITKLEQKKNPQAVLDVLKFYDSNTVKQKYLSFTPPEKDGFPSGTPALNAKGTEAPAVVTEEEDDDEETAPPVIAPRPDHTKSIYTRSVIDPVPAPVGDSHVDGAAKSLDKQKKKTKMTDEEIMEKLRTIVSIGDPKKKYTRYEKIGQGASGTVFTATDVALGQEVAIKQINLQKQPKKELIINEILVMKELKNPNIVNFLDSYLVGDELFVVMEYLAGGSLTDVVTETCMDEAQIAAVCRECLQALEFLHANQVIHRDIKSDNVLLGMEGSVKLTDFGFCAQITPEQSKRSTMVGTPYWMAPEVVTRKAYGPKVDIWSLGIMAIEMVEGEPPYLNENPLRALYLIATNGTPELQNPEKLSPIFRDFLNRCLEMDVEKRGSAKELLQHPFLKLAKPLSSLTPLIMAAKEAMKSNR
# Chain of PAK1 (Q13153 whole entry): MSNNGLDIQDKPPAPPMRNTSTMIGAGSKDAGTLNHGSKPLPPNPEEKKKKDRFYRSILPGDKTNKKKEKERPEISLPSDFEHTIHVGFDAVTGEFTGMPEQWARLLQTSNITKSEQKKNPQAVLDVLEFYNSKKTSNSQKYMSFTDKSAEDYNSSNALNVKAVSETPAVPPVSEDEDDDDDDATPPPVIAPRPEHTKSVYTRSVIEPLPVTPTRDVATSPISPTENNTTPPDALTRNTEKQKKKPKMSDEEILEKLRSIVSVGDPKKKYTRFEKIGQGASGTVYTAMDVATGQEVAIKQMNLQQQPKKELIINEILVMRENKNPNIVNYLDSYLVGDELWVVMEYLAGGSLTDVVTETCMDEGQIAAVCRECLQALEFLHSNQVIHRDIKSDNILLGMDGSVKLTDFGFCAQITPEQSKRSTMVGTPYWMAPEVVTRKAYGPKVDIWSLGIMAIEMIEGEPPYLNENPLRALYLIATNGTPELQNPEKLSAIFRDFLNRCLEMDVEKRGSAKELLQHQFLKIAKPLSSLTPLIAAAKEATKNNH
SMILES,pIC50 [1],pIC50 [2],pIC50 [3],pIC50 [4]
CCn1c(=O)c(-c2ccc(-c3cncnc3)cc2Cl)cc2cnc(Nc3ccc(N4CCN(C)CC4)cc3)nc21,5.30 to 6.30,> 7.30,> 7.30,> 7.30
CCn1c(=O)c(-c2ccc(-c3ccncc3)cc2Cl)cc2cnc(Nc3ccc(N4CCN(C)CC4)cc3)nc21,≤ 5.30,> 7.30,> 7.30,> 7.30
CCn1c(=O)c(-c2ccc(-c3cccnc3)cc2Cl)cc2cnc(Nc3ccc(N4CCN(C)CC4)cc3)nc21,5.30 to 6.30,> 7.30,> 7.30,> 7.30
CCn1c(=O)c(-c2ccc(-c3ccc(C)nc3)cc2Cl)cc2cnc(Nc3ccc(C4CCNCC4)cc3)nc21,5.30 to 6.30,> 7.30,> 7.30,6.30 to 7.30
CCn1c(=O)c(-c2ccc(-c3ccnc(C)c3)cc2Cl)cc2cnc(Nc3ccc(C4CCNCC4)cc3)nc21,5.30 to 6.30,6.30 to 7.30,> 7.30,6.30 to 7.30
CCN1CCC(c2ccc(Nc3ncc4cc(-c5ccc(-c6cccnc6)cc5Cl)c(=O)n(CC)c4n3)cc2F)CC1,5.30 to 6.30,> 7.30,> 7.30,> 7.30
CCn1c(=O)c(-c2ccc(-c3cccnc3C)cc2Cl)cc2cnc(Nc3ccc(C4CCNCC4)c(F)c3)nc21,5.30 to 6.30,> 7.30,> 7.30,6.30 to 7.30
Cc1ncccc1-c1ccc(-c2cc3cnc(Nc4ccc(C5CCNCC5)cc4)nc3n(C)c2=O)c(Cl)c1,≤ 5.30,6.30 to 7.30,> 7.30,6.30 to 7.30
CCn1c(=O)c(-c2ccc(-c3cccnc3C)cc2Cl)cc2cnc(Nc3ccc(C4=CCNCC4)cc3)nc21,5.30 to 6.30,> 7.30,> 7.30,> 7.30
CCn1c(=O)c(-c2ccc(-c3cnc(C)s3)cc2Cl)cc2cnc(Nc3ccc(C4=CCNCC4)cc3)nc21,5.30 to 6.30,> 7.30,> 7.30,> 7.30
CCn1c(=O)c(-c2ccc(-c3ccc(C)nc3)cc2Cl)cc2cnc(Nc3ccc(C4CCN(C(C)C)CC4)cc3)nc21,≤ 5.30,> 7.30,> 7.30,6.30 to 7.30
CCn1c(=O)c(-c2ccc(-c3noc(C)n3)cc2Cl)cc2cnc(Nc3ccc(C4CCN5CCCC5C4)cc3)nc21 (centres unmarked),≤ 5.30,> 7.30,> 7.30,> 7.30
CCn1c(=O)c(-c2ccc(-c3ccc(C)nc3)cc2Cl)cc2cnc(Nc3ccc(C4CCNCC4)c(F)c3)nc21,5.30 to 6.30,> 7.30,> 7.30,6.30 to 7.30
CCn1c(=O)c(-c2ccc(-c3noc(C)n3)cc2Cl)cc2cnc(Nc3ccc(C4=CCNCC4)cc3)nc21,5.30 to 6.30,> 7.30,> 7.30,> 7.30
CCN1CCC(c2ccc(Nc3ncc4cc(-c5ccc(-c6ccnc(C(=O)NC)c6)cc5Cl)c(=O)n(CC)c4n3)cc2)CC1,5.30 to 6.30,6.30 to 7.30,6.30 to 7.30,6.30 to 7.30
CCn1c(=O)c(-c2ccc(-c3noc(C)n3)cc2Cl)cc2cnc(Nc3ccc(C4=CCN(C)CC4)cc3)nc21,5.30 to 6.30,> 7.30,> 7.30,> 7.30
CCn1c(=O)c(-c2ccc(-c3ccnc(C(=O)NC)c3)cc2Cl)cc2cnc(Nc3ccc(C4CCNCC4)c(F)c3)nc21,≤ 5.30,6.30 to 7.30,6.30 to 7.30,< 5.30
CCn1c(=O)c(-c2ccc(-c3cccnc3C)cc2Cl)cc2cnc(Nc3ccc(C4CCN5CCCC5C4)cc3)nc21 (centres unmarked),≤ 5.30,6.30 to 7.30,> 7.30,6.30 to 7.30
CCn1c(=O)c(-c2ccc(-c3cccnc3C)cc2Cl)cc2cnc(Nc3ccc(C4CCN(C(C)C)CC4)cc3)nc21,≤ 5.30,6.30 to 7.30,> 7.30,6.30 to 7.30

# More lines, now with the values ahead:
pIC50 [1],pIC50 [2],pIC50 [3],pIC50 [4],SMILES
5.30 to 6.30,> 7.30,> 7.30,> 7.30,CCn1c(=O)c(-c2ccc(-c3cccnc3)cc2Cl)cc2cnc(Nc3ccc(CN(C)C)cc3)nc21
6.30 to 7.30,> 7.30,> 7.30,> 7.30,CCn1c(=O)c(-c2ccc(-c3cccnc3F)cc2Cl)cc2cnc(Nc3ccc(C4=CCNCC4)cc3)nc21
5.30 to 6.30,> 7.30,> 7.30,> 7.30,CCn1c(=O)c(-c2ccc(-c3cccnc3F)cc2Cl)cc2cnc(Nc3ccc(C4=CCN(C)CC4)cc3)nc21
≤ 5.30,6.30 to 7.30,6.30 to 7.30,6.30 to 7.30,CCn1c(=O)c(-c2ccc(-c3ccnc(C(=O)NC)c3)cc2Cl)cc2cnc(Nc3ccc(CCN(C)C)cc3)nc21
5.30 to 6.30,> 7.30,> 7.30,6.30 to 7.30,CCn1c(=O)c(-c2ccc(-c3ccc(C)nc3F)cc2Cl)cc2cnc(Nc3ccc(C4CCNCC4)cc3)nc21
5.30 to 6.30,> 7.30,6.30 to 7.30,6.30 to 7.30,CCn1c(=O)c(-c2ccc(-c3ccc(C)nc3F)cc2Cl)cc2cnc(Nc3ccc(C4CCN(C(C)C)CC4)cc3)nc21
5.30 to 6.30,6.30 to 7.30,6.30 to 7.30,6.30 to 7.30,CCN1CCC(c2ccc(Nc3ncc4cc(-c5ccc(-c6ccc(C)nc6F)cc5Cl)c(=O)n(CC)c4n3)cc2)CC1
5.30 to 6.30,> 7.30,> 7.30,6.30 to 7.30,CCn1c(=O)c(-c2ccc(-c3ccc(C)nc3)cc2Cl)cc2cnc(Nc3ccc(CCN(C)C)cc3)nc21
5.30 to 6.30,> 7.30,> 7.30,> 7.30,CCn1c(=O)c(-c2ccc(-c3ccc(C)nc3F)cc2Cl)cc2cnc(Nc3ccc(CCN(C)C)cc3)nc21
5.30 to 6.30,> 7.30,> 7.30,> 7.30,CCn1c(=O)c(-c2ccc(-c3cccnc3F)cc2Cl)cc2cnc(Nc3ccc(C4CCN(C(C)C)CC4)cc3)nc21
≤ 5.30,> 7.30,> 7.30,6.30 to 7.30,CCn1c(=O)c(-c2ccc(-c3cccnc3C)cc2Cl)cc2cnc(Nc3ccc(CCN(C)C)cc3)nc21
6.30 to 7.30,> 7.30,> 7.30,> 7.30,CCn1c(=O)c(-c2ccc(-c3cccnc3F)cc2Cl)cc2cnc(Nc3ccc(CCN(C)C)cc3)nc21
≤ 5.30,6.30 to 7.30,> 7.30,6.30 to 7.30,CCN1CCC(c2ccc(Nc3ncc4cc(-c5ccc(-c6ccc(F)nc6C)cc5Cl)c(=O)n(CC)c4n3)cc2)CC1
6.30 to 7.30,> 7.30,> 7.30,> 7.30,CCN1CCC(c2ccc(Nc3ncc4cc(-c5ccc(-c6cccnc6F)cc5Cl)c(=O)n(CC)c4n3)cc2)CC1
≤ 5.30,6.30 to 7.30,> 7.30,6.30 to 7.30,CCn1c(=O)c(-c2ccc(-c3ccc(F)nc3C)cc2Cl)cc2cnc(Nc3ccc(C4CCNCC4)cc3)nc21
5.30 to 6.30,6.30 to 7.30,6.30 to 7.30,6.30 to 7.30,CCn1c(=O)c(-c2ccc(-c3ccc(C)nc3F)cc2Cl)cc2cnc(Nc3ccc(C4CCNCC4)c(F)c3)nc21
